Common to all, as to experiment: Kinobeads competition binding, HL60 cell lysate
Holding throughout (settings): 10 μM free compound

Assay [1] deals with T1, ALK4 (Homo sapiens, UniProt P36896).
T1 construct: endogenous in cells; host or cells: HL60 cells
As for the experimental part: (§1) To one aliquot of cell lysate 10 μM of the free compound (FIG. 3, CZC31326) was added and allowed to bind to proteins in the lysate. Then the affinity matrix with the immobilized compound (Example 1) was added to capture proteins that were not interacting with the previously added free compound. Beads were separated from the lysate and bead bound proteins were eluted in SDS sample buffer and subsequently separated by SDS-Polyacrylamide gel electrophoresis (FIG. 4). Suitable gel bands were cut out and subjected to in-gel proteolytic digestion with trypsin. The second lysate aliquot was processed identically, however no free compound was added (DMSO solvent control). Peptides originating from samples 1 and 2 were labeled with iTRAQ reagents (iTRAQ 114 and iTRAQ 117) and the combined samples were analyzed with a nano-flow liquid chromatography system coupled online to a tandem mass spectrometer (LC-MS/MS) experiment followed by iTRAQ reporter ion quantification in the MS/MS spectra (Ross et al., 2004. Mol. Cell. Proteomics 3(12):1154-1169). Further experimental protocols can be found in WO2006/134056 and a previous publication (Bantscheff et al., 2007. Nature Biotechnology 25, 1035-1044). Sepharose-beads with the immobilized compound (100 μl beads per pull-down experiment) were equilibrated in lysis buffer and incubated with a cell lysate sample containing 50 mg of protein on an end-over-end shaker (Roto Shake Genie, Scientific Industries Inc.) for 2 hours at 4° C. Beads were collected, transferred to Mobicol-columns (MoBiTech 10055) and washed with 10 ml lysis buffer containing 0.4% NP40 detergent, followed by 5 ml lysis buffer containing 0.2% detergent. To elute bound proteins, 60 μl 2×SDS sample buffer was added to the column. The column was incubated for 30 minutes at 50° C. and the eluate was transferred to a siliconized microfuge tube by centrifugation. Proteins were then alkylated with 108 mM iodoacetamid. Proteins were then separated by SDS-Polyacrylamide electrophoresis (SDS-PAGE). The peptide extracts of samples treated with 10 μM of free compound (CZC31326) and the solvent control (0.5% DMSO) were treated with different variants of the isobaric tagging reagent (iTRAQ Reagents Multiplex Kit, part number 4352135, Applied Biosystems, Foster City, Calif., USA). The iTRAQ reagents are a set of multiplexed, amine-specific, stable isotope reagents that can label peptides on amino groups in up to four different biological samples enabling simultaneous identification and quantitation of peptides. The iTRAQ reagents were used according to instructions provided by the manufacturer. The samples were resuspended in 10 μl 50 mM TEAB solution, pH 8.5 and 10 μl ethanol were added. The iTRAQ reagent was dissolved in 120 μl ethanol and 10 μl of reagent solution were added to the sample. The labeling reaction was performed at room temperature for one hour on a horizontal shaker and stopped by adding 5 μl of 100 mM TEAB and 100 mM glycine in water. The two labeled sampled were then combined, dried in a vacuum centrifuge and resuspended in 10 μl of 0.1% formic acid in water. Relative protein quantitation was performed using peak areas of iTRAQ reporter ion signals essentially as described in an earlier publication (Bantscheff et al., 2007. Nature Biotechnology 25, 1035-1044).

The target of assay [2] is T2, CSK (Homo sapiens, UniProt P41240).
T2 construct: endogenous in cells; host or cells: HL60 (DSMZ ACC3)
T2 sequence (P41240 whole entry): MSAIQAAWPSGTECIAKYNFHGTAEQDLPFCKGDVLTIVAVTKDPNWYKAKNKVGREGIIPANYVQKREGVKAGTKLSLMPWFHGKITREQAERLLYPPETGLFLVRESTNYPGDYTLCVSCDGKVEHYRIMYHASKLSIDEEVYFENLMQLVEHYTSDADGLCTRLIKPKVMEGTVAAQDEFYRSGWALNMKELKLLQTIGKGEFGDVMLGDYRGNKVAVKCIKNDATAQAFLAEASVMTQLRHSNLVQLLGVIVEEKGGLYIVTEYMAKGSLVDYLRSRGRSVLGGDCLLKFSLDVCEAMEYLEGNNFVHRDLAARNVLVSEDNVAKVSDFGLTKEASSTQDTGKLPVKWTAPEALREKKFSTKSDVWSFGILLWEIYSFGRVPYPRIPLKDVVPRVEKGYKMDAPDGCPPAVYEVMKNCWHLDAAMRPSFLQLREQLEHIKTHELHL
The method, then:
as §1

Assay [3] concerns the target T3, KHS1 (Homo sapiens, UniProt Q9Y4K4).
T3 construct: Identified kinases with CZC31326 from HL60 lysate; endogenous in cells; host or cells: HL60
As for the experimental part: as §1

In assay [4] the target is T4, MAP2K5 (Homo sapiens, UniProt Q13163).
T4 sequence (Q13163 1-448): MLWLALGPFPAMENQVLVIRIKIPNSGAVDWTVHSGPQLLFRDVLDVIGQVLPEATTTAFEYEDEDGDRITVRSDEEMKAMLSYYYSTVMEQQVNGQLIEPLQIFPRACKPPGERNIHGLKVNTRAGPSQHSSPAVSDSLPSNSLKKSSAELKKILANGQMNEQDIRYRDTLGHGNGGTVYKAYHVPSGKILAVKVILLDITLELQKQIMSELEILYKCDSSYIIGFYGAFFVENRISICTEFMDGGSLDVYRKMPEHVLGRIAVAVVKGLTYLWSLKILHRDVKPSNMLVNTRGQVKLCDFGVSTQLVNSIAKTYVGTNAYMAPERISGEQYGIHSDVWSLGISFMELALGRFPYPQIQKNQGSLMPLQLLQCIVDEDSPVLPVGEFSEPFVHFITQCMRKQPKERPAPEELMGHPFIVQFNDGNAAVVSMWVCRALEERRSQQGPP
The method, then: as §1

The target of assay [5] is T5, MSK1 (Homo sapiens, UniProt O75582).
T5 construct: endogenous in cells; host or cells: HL60
T5 sequence (O75582 whole entry): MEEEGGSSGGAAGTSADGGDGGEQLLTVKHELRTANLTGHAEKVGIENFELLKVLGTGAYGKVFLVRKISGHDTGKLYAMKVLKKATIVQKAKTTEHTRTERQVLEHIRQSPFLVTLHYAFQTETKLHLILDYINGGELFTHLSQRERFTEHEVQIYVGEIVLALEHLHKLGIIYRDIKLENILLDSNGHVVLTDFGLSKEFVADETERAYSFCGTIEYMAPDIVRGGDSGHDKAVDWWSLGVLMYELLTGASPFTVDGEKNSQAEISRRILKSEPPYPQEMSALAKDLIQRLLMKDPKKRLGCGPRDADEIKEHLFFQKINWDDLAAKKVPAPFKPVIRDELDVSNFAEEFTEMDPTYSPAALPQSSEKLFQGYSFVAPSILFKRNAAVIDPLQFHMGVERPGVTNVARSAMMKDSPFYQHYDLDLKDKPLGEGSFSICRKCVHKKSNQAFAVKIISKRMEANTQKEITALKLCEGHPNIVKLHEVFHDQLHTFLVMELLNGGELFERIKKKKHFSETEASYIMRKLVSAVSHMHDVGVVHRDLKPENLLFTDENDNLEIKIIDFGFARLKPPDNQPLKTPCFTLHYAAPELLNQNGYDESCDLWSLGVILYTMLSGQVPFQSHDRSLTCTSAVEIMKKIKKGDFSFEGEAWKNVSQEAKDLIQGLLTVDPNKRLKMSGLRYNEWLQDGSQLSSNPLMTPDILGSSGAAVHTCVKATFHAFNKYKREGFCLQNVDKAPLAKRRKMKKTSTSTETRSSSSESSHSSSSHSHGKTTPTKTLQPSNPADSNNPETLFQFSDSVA
As for the experimental part:
as §1

T1 sequence (P36896 24-505): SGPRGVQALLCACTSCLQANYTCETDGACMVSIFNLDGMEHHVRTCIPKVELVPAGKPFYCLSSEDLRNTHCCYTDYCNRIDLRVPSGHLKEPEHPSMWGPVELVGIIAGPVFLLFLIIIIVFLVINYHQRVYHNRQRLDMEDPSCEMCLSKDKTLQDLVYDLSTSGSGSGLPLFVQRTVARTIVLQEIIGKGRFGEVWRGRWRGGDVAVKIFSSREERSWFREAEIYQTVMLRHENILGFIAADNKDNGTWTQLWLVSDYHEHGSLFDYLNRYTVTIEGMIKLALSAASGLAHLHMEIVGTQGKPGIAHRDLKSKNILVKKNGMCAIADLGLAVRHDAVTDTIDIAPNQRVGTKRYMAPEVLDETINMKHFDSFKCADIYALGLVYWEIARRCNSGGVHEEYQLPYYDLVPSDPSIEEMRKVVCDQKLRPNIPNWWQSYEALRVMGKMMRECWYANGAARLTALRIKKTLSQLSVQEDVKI
T3 sequence (Q9Y4K4 whole entry): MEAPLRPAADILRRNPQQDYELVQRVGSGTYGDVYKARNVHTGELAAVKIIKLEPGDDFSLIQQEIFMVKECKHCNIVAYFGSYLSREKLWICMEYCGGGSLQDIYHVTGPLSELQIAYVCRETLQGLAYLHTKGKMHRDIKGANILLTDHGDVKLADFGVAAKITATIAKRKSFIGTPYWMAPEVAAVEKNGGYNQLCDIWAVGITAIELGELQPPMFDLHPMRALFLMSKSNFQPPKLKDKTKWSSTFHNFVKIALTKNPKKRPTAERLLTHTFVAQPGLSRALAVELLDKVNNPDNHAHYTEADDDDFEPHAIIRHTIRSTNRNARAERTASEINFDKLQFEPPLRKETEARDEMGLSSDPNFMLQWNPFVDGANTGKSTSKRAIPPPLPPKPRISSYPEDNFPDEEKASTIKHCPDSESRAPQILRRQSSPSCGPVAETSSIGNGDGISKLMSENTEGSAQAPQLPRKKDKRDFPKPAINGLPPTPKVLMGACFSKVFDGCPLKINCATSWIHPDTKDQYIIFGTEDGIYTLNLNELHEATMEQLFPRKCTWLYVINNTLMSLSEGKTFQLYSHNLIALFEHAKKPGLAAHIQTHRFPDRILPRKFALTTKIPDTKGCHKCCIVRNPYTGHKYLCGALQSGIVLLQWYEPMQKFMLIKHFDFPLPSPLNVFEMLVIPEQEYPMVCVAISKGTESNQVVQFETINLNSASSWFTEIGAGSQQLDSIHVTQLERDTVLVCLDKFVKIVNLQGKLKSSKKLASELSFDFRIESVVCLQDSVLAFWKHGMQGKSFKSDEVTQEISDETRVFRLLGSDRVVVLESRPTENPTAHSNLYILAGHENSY

For orientation: inhibition means the relative decrease from the control value, in per cent. For `CS(=O)(=O)Nc1ccccc1Nc1nc(Nc2cccc(OCCN)c2)ncc1Cl` [CZC31326, N-(2-(2-(3-(2-aminoethoxy)phenylamino)-5-chloropyrimidin-4-ylamino)phenyl)methanesulfonamide], the inhibition at 10 µM in assay [1] is 94.5%; in assay [3], 93.2%; in assay [4], 93.1%; in assay [5] it was 94.7%. This compound also came in with a Competition % in assay [2] of 80.3%.

Values taken from patent US20120270237A9, “METHODS FOR THE IDENTIFICATION OF KINASE INTERACTING MOLECULES AND FOR THE PURIFICATION OF KINASE PROTEINS” (Cellzone AG, priority 2009, published 2012).
